Read-outs that look alike come from different tables or passages of the source.
What was measured:
KM12 [1] = system: KM12
NCI/ADR-RES = conditions: for Mean Optical Densities / Percent Growth: NCI/ADR-RES
MDA-MB-231/ATCC = conditions: for Mean Optical Densities / Percent Growth: MDA-MB-231/ATCC
K-562 = experiment: cells; conditions: Homo sapiens
A549/ATCC = experiment: cells; conditions: Homo sapiens
KM12 [2] = experiment: cells; conditions: Homo sapiens
SF-295 = experiment: cells; conditions: Homo sapiens
M14 = experiment: cells; conditions: Homo sapiens
SN12C = experiment: cells; conditions: Homo sapiens
TK-10 = experiment: cells; conditions: Homo sapiens
[3] = OVCAR-5, log10 concentration −4.0
[4] = OVCAR-5, log10 concentration −5.0
[5] = OVCAR-5, log10 concentration −6.0
[6] = OVCAR-5, log10 concentration −7.0
[7] = OVCAR-5, log10 concentration −8.0
[8] = CAKI-1, log10 concentration −4.0
[9] = CAKI-1, log10 concentration −5.0
[10] = CAKI-1, log10 concentration −6.0
[11] = CAKI-1, log10 concentration −7.0
[12] = CAKI-1, log10 concentration −8.0
[13] = RXF 393, log10 concentration −4.0
[14] = RXF 393, log10 concentration −5.0
[15] = RXF 393, log10 concentration −6.0
[16] = RXF 393, log10 concentration −7.0
[17] = RXF 393, log10 concentration −8.0
[18] = BT-549, log10 concentration −4.0
[19] = BT-549, log10 concentration −5.0
[20] = BT-549, log10 concentration −6.0
[21] = BT-549, log10 concentration −7.0
[22] = BT-549, log10 concentration −8.0
[23] = OVCAR-3, log10 concentration −4.0
[24] = OVCAR-3, log10 concentration −5.0
[25] = OVCAR-3, log10 concentration −6.0
[26] = OVCAR-3, log10 concentration −7.0
[27] = OVCAR-3, log10 concentration −8.0

Structure (SMILES): CC(C)c1cnn2c(NCc3ccccc3)cc(N[C@@H](CO)[C@H](O)CO)nc12 [ICEC0318, (3S)-3-(7-(Benzylamino)-3-isopropylpyrazolo[1,5-a]pyrimidin-5-ylamino)butane-1,2,4-triol]
- TGI (KM12 [1]; KM12 (Colon Cancer)): >1.00E−4
- Mean Optical Densities (KM12 [1]; KM12, log10 concentration −4.0): 0.305
- Percent Growth (KM12 [1]; KM12, log10 concentration −4.0): 10%
- Mean Optical Densities (KM12 [1]; KM12, log10 concentration −5.0): 0.304
- Percent Growth (KM12 [1]; KM12, log10 concentration −5.0): 10%
- Mean Optical Densities (KM12 [1]; KM12, log10 concentration −6.0): 0.318
- Percent Growth (KM12 [1]; KM12, log10 concentration −6.0): 12%
- Mean Optical Densities (KM12 [1]; KM12, log10 concentration −7.0): 0.802
- Percent Growth (KM12 [1]; KM12, log10 concentration −7.0): 80%
- Mean Optical Densities (KM12 [1]; KM12, log10 concentration −8.0): 1.036
- Percent Growth (KM12 [1]; KM12, log10 concentration −8.0): 113%
- TGI (OVCAR-5; OVCAR-5 (Ovarian Cancer)): >1.00E−4
- Mean Optical Densities (OVCAR-5; [3]): 0.618
- Percent Growth (OVCAR-5; [3]): 10%
- Mean Optical Densities (OVCAR-5; [4]): 0.688
- Percent Growth (OVCAR-5; [4]): 19%
- Mean Optical Densities (OVCAR-5; [5]): 0.665
- Percent Growth (OVCAR-5; [5]): 16%
- Mean Optical Densities (OVCAR-5; [6]): 1.165
- Percent Growth (OVCAR-5; [6]): 82%
- Mean Optical Densities (OVCAR-5; [7]): 1.211
- Percent Growth (OVCAR-5; [7]): 88%
- TGI (CAKI-1; CAKI-1 (Renal Cancer)): >1.00E−4
- Mean Optical Densities (CAKI-1; [8]): 0.358
- Percent Growth (CAKI-1; [8]): 2%
- Mean Optical Densities (CAKI-1; [9]): 0.372
- Percent Growth (CAKI-1; [9]): 5%
- Mean Optical Densities (CAKI-1; [10]): 0.423
- Percent Growth (CAKI-1; [10]): 18%
- Mean Optical Densities (CAKI-1; [11]): 0.631
- Percent Growth (CAKI-1; [11]): 71%
- Mean Optical Densities (CAKI-1; [12]): 0.704
- Percent Growth (CAKI-1; [12]): 90%
- TGI (RXF 393; RXF 393 (Renal Cancer)): 5.27E−7
- Mean Optical Densities (RXF 393; [13]): 0.239
- Percent Growth (RXF 393; [13]): −54%
- Mean Optical Densities (RXF 393; [14]): 0.308
- Percent Growth (RXF 393; [14]): −40%
- Mean Optical Densities (RXF 393; [15]): 0.333
- Percent Growth (RXF 393; [15]): −35%
- Mean Optical Densities (RXF 393; [16]): 0.928
- Percent Growth (RXF 393; [16]): 92%
- Mean Optical Densities (RXF 393; [17]): 0.980
- Percent Growth (RXF 393; [17]): 103%
- TGI (NCI/ADR-RES; NCI/ADR-RES (Breast Cancer)): >1.00E−4
- Mean Optical Densities (NCI/ADR-RES; log10 concentration −4.0): 0.531
- Percent Growth (NCI/ADR-RES; log10 concentration −4.0): 10%
- Mean Optical Densities (NCI/ADR-RES; log10 concentration −5.0): 0.657
- Percent Growth (NCI/ADR-RES; log10 concentration −5.0): 22%
- Mean Optical Densities (NCI/ADR-RES; log10 concentration −6.0): 1.107
- Percent Growth (NCI/ADR-RES; log10 concentration −6.0): 63%
- Mean Optical Densities (NCI/ADR-RES; log10 concentration −7.0): 1.638
- Percent Growth (NCI/ADR-RES; log10 concentration −7.0): 111%
- Mean Optical Densities (NCI/ADR-RES; log10 concentration −8.0): 1.587
- Percent Growth (NCI/ADR-RES; log10 concentration −8.0): 107%
- TGI (MDA-MB-231/ATCC; MDA-MB-231/ATCC (Breast Cancer)): >1.00E−4
- Mean Optical Densities (MDA-MB-231/ATCC; log10 concentration −4.0): 0.482
- Percent Growth (MDA-MB-231/ATCC; log10 concentration −4.0): 11%
- Mean Optical Densities (MDA-MB-231/ATCC; log10 concentration −5.0): 0.529
- Percent Growth (MDA-MB-231/ATCC; log10 concentration −5.0): 19%
- Mean Optical Densities (MDA-MB-231/ATCC; log10 concentration −6.0): 0.548
- Percent Growth (MDA-MB-231/ATCC; log10 concentration −6.0): 22%
- Mean Optical Densities (MDA-MB-231/ATCC; log10 concentration −7.0): 1.039
- Percent Growth (MDA-MB-231/ATCC; log10 concentration −7.0): 101%
- Mean Optical Densities (MDA-MB-231/ATCC; log10 concentration −8.0): 1.087
- Percent Growth (MDA-MB-231/ATCC; log10 concentration −8.0): 109%
- TGI (BT-549; BT-549 (Breast Cancer)): 8.82E−7
- Mean Optical Densities (BT-549; [18]): 0.803
- Percent Growth (BT-549; [18]): −10%
- Mean Optical Densities (BT-549; [19]): 0.805
- Percent Growth (BT-549; [19]): −9%
- Mean Optical Densities (BT-549; [20]): 0.843
- Percent Growth (BT-549; [20]): −5%
- Mean Optical Densities (BT-549; [21]): 1.769
- Percent Growth (BT-549; [21]): 88%
- Mean Optical Densities (BT-549; [22]): 1.968
- Percent Growth (BT-549; [22]): 108%
- GI50 (K-562; K562): 0.288 µM
- CC50 (K-562; K562, read-out: LC50): > 100 µM
- GI50 (A549/ATCC; A549): 0.338 µM
- CC50 (A549/ATCC; A549, read-out: LC50): > 100 µM
- GI50 (KM12 [2]; KM12): 0.275 µM
- CC50 (KM12 [2]; KM12, read-out: LC50): > 100 µM
- GI50 (SF-295; SF-295): 0.266 µM
- CC50 (SF-295; SF-295, read-out: LC50): > 100 µM
- GI50 (M14; M14): 0.305 µM
- CC50 (M14; M14, read-out: LC50): 45.2 µM
- GI50 (SN12C): 0.327 µM
- CC50 (SN12C; read-out: LC50): > 100 µM
- GI50 (TK-10; TK-10): 0.377 µM
- CC50 (TK-10; TK-10, read-out: LC50): > 100 µM
- GI50 (OVCAR-3; Homo sapiens, OVCAR-3): 0.335 µM
- CC50 (OVCAR-3; Homo sapiens, OVCAR-3, read-out: LC50): > 100 µM
- TGI (OVCAR-3; OVCAR-3 (Ovarian Cancer)): >1.00E−4
- Mean Optical Densities (OVCAR-3; [23]): 0.313
- Percent Growth (OVCAR-3; [23]): 9%
- Mean Optical Densities (OVCAR-3; [24]): 0.317
- Percent Growth (OVCAR-3; [24]): 10%
- Mean Optical Densities (OVCAR-3; [25]): 0.306
- Percent Growth (OVCAR-3; [25]): 8%
- Mean Optical Densities (OVCAR-3; [26]): 0.700
- Percent Growth (OVCAR-3; [26]): 97%
- Mean Optical Densities (OVCAR-3; [27]): 0.795
- Percent Growth (OVCAR-3; [27]): 118%

Reference: patent US8067424B2, “Selective inhibitors for cyclin-dependent kinases” (Emory University, priority 2007, dated 2011)
